Experimental data taken from US12209144B2, “Cyclic peptides as proprotein convertase subtilisin/kexin type 9 (PCSK9) inhibitors for the treatment of metabolic disorders” (Novartis AG, priority 2018, dated 2025).
Bridge positions count the residues as written; N and C are the ends. Square brackets hold non-standard residues; d marks the D form. Peptide text beside a SMILES is read from it. Phe(3,4-Cl2) = N[C@@H](Cc1ccc(Cl)c(Cl)c1)C(=O)O; Phe(4-CF3) = N[C@@H](Cc1ccc(C(F)(F)F)cc1)C(=O)O; Bip = N[C@@H](Cc1ccc(-c2ccccc2)cc1)C(=O)O; Phe(4-Cl) = N[C@@H](Cc1ccc(Cl)cc1)C(=O)O; NMeF = CN[C@@H](Cc1ccccc1)C(=O)O; NMeE = CN[C@@H](CCC(=O)O)C(=O)O; NMeA = CN[C@@H](C)C(=O)O

Target: human PCSK9 (Homo sapiens, UniProt Q8NBP7)
Sequence (Q8NBP7 153-692): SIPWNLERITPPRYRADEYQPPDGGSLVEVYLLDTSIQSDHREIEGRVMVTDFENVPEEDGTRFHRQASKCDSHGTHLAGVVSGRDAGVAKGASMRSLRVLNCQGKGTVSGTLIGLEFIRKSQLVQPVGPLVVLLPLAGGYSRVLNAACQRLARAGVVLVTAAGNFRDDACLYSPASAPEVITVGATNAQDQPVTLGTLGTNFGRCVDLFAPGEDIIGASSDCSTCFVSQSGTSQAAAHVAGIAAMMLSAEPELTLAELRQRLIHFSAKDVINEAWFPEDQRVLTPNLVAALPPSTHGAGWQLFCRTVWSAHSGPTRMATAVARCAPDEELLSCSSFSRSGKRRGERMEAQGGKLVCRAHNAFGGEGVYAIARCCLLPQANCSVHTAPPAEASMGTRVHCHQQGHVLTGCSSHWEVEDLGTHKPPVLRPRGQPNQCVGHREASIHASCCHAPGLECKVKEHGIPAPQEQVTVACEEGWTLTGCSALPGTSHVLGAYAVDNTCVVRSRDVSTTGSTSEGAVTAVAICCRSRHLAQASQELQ
Sequence (Q8NBP7 31-152 partner limits assumed): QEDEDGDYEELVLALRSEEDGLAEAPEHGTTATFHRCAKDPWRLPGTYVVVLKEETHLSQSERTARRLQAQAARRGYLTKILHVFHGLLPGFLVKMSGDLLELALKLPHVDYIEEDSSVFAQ
Experiment: PCSK9 ligand binding assay (TR-FRET): interference with binding of human PCSK9 to human LDLR
Settings: PCSK9 FRET assay, efficacy (Amax); 0% = DMSO, 100% = 1 uM unlabeled human PCSK9
Procedure: The activity of cyclic polypeptides according to the disclosure as PCSK9 can be assessed using a time resolved fluorescence resonance energy transfer (TR-FRET) assay. This time resolved fluorescence resonance energy transfer (TR-FRET) assay measures the ability of a cyclic polypeptides of the disclosure to interfere with the binding of human PCSK9 to human LDLR, providing measures of both potency (IC50) and efficacy (Amax).
Solutions of varying concentrations are prepared by diluting a cyclic polypeptide of the disclosure in dimethylsulfoxide (DMSO) and the resulting solutions are pipetted into a plate. DMSO is used as a negative control. An intermediate plate is prepared in by transferring a known amount of each polypeptide solution and of the control from the compound plate into a corresponding well containing assay buffer and mixing thoroughly. A third plate is then prepared to be used for the assay by adding Human PCSK9 Alexa Fluor 647, followed by a known amount of each solution from the intermediate plate. Unlabeled human PCSK9 in assay buffer containing DMSO is used as a positive control for the assay. Following incubation, Human LDLR extracellular domain-Europium Kryptate is added to each well of the assay plate and the resulting mixture is incubated for an additional period of time. The TR-FRET signal is measured and the FRET ratio (FRET/Europium) is used to calculate the IC50 and Amax of the cyclic polypeptides.
The PCSK9 binding of the cyclic polypeptides of the disclosure were measured using a time resolved fluorescence resonance energy transfer (TR-FRET) assay. This time resolved fluorescence resonance energy transfer (TR-FRET) assay measures the ability of a cyclic polypeptide of the disclosure to interfere with the binding of human PCSK9 to human LDLR, providing measures of both potency (IC50) and efficacy (Amax).
• Human PCSK9 • Human PCSK9 Alexa Fluor 647 • Human LDLR extracellular domain-Europium Kryptate • Proxi plate-low volume assay plate (PerkinElmer #6008280) • Greiner V-bottom (Greiner BioOne #781280) • Assay Buffer • 20 mM HEPES, pH 7.5 • 150 mM NaCl • 1 mM CaCl2 • 0.01% v/v Tween20 • 0.01% w/v BSA
A master compound plate was prepared in a Greiner V bottom plate by diluting cyclic polypeptides of the disclosure in dimethylsulfoxide to the correct concentration for the desired top concentration based on the desired final concentration: for a 30 uM final concentration the master plate concentration is 1.5 mM (68 uL DMSO+12 uL 10 mM of a cyclic polypeptide of the disclosure), for a 10 uM final concentration the master plate concentration is 0.5 mM (76 uL DMSO+4 uL 10 mM of a cyclic polypeptide of the disclosure), for a 3 uM final concentration the master plate concentration is 150 uM (69 uL DMSO+1 uL 10 mM a cyclic peptide of the disclosure). These solutions were pipetted into columns 1 and 11 of the compound plate. Threefold serial dilutions were generated in columns 2-10 and 12-20 of the compound plate by transferring 10 uL into 20 μL of DMSO. Columns 21 and 22 of the compound plate were negative controls containing DMSO alone.
An intermediate plate was generated in a Greiner V bottom plate by transferring 8 uL from each well of the master plate into a corresponding well containing 92 μL of assay buffer and mixing thoroughly.
A Proxi plate-low volume assay plate was used for the assay. To all wells of the plate was added 10 μL of 16 nM Human PCSK9 Alexa Fluor 647, followed by 5 uL from the intermediate plate. […] Following a 30 minute incubation, 5 μL of 4 nM Human LDLR extracellular domain-Europium Kryptate was added and the mixture was incubated for an additional 2 hours.
The TR-FRET signal was measured on an EnVision or PheraStar instrument with a […] delay, 330 nm excitation and 665 nm emission (FRET), and 330 nm excitation and 615 nm (Europium). The FRET ratio (FRET/Europium) was used for calculations. […]

Compound | Maximum % inhibition [%]
CC(C)[C@@H]1NC(=O)[C@H](Cc2ccccc2)NC(=O)CSC[C@@H](C(=O)NCC(N)=O)NC(=O)[C@@H]2CCCN2C(=O)[C@H](CCCNC(=N)N)NC(=O)[C@H](CC(=O)O)NC(=O)[C@H](C)N(C)C(=O)[C@H](Cc2ccc(-c3ccccc3)cc2)NC(=O)[C@H](C)N(C)C(=O)[C@H](Cc2ccc(-c3ccccc3)cc2)NC(=O)[C@H]([C@@H](C)O)NC(=O)[C@H]([C@@H](C)O)NC(=O)[C@@H]2CCCN2C1=O [Example 1-19, Ac*-F-V-P-T-T-B-(N-Me)A-B-(N-Me)A-D-R-P-C*-G-NH2] ({CH2CO}-FVPTT[Bip][NMeA][Bip][NMeA]DRPCG-NH2; thioether N-13) | 38
CC(C)[C@@H]1NC(=O)[C@H](Cc2ccccc2)NC(=O)CSC[C@@H](C(=O)NCC(N)=O)NC(=O)[C@@H]2CCCN2C(=O)[C@H](C)NC(=O)[C@H](CCCCN)NC(=O)[C@H](C)N(C)C(=O)[C@H](Cc2ccc(-c3ccccc3)cc2)NC(=O)[C@H](C)N(C)C(=O)[C@H](Cc2ccccc2)NC(=O)[C@H]([C@@H](C)O)NC(=O)[C@H]([C@@H](C)O)NC(=O)[C@H](C)NC1=O [Example 1-22, Ac*-F-V-A-T-T-F-(N-Me)A-B-(N-Me)A-K-A-P-C*-G-NH2] ({CH2CO}-FVATTF[NMeA][Bip][NMeA]KAPCG-NH2; thioether N-13) | 49
CC(C)[C@@H]1NC(=O)[C@H](Cc2ccccc2)NC(=O)CSC[C@@H](C(=O)NCC(N)=O)NC(=O)[C@@H]2CCCN2C(=O)[C@H](C)NC(=O)[C@H](CCC(=O)O)NC(=O)[C@H](C)N(C)C(=O)[C@H](Cc2ccc(-c3ccccc3)cc2)NC(=O)[C@H](C)N(C)C(=O)[C@H](Cc2ccccc2)NC(=O)[C@H]([C@@H](C)O)NC(=O)[C@H]([C@@H](C)O)NC(=O)[C@H](CO)NC1=O [Example 1-24, Ac*-F-V-S-T-T-F-(N-Me)A-B-(N-Me)A-E-A-P-C*-G-NH2] ({CH2CO}-FVSTTF[NMeA][Bip][NMeA]EAPCG-NH2; thioether N-13) | 70
CC(C)[C@@H]1NC(=O)[C@H](Cc2ccccc2)NC(=O)CSC[C@@H](C(=O)NCC(N)=O)NC(=O)[C@@H]2CCCN2C(=O)[C@H](C)NC(=O)[C@H](CCCCN)NC(=O)[C@H](C)N(C)C(=O)[C@H](Cc2ccc(-c3ccccc3)cc2)NC(=O)[C@H](C)N(C)C(=O)[C@H](Cc2ccccc2)NC(=O)[C@H]([C@@H](C)O)NC(=O)[C@H]([C@@H](C)O)NC(=O)[C@H](CC(N)=O)NC1=O [Example 1-23, Ac*-F-V-N-T-T-F-(N-Me)A-B-(N-Me)A-K-A-P-C*-G-NH2] ({CH2CO}-FVNTTF[NMeA][Bip][NMeA]KAPCG-NH2; thioether N-13) | 36
CC(C)[C@@H]1NC(=O)[C@H](Cc2ccccc2)NC(=O)CSC[C@@H](C(N)=O)NC(=O)[C@@H]2CCCN2C(=O)[C@H](C)NC(=O)[C@@H]2CCCN2C(=O)[C@H](C)N(C)C(=O)[C@H](Cc2ccc(Cl)cc2)NC(=O)[C@H](C)N(C)C(=O)[C@H](Cc2ccccc2)NC(=O)[C@H]([C@@H](C)O)NC(=O)[C@H]([C@@H](C)O)NC(=O)[C@@H]2CCCN2C1=O [Example 2-1, (6S,8aS,14S,17S,20S,23S,26S,29S,31aS,37S,40S,46R,48aS)-23,40-dibenzyl-17-(4-chlorobenzyl)-26,29-bis((R)-1-hydroxyethyl)-37-isopropyl-6,14,15,20,21-pentamethyl-5,8,13,16,19,22,25,28,31,36,39,42,48-tridecaoxohexatetracontahydro-13H-tripyrrolo[1,2-e1:1′,2′-j:1″,2″-k1][1]thia[4,7,10,13,16,19,22,25,28,31,34,37,40]tridecaazacyclodo-tetracontine-46-carboxamide] ({CH2CO}-FVPTTF[NMeA][Phe(4-Cl)][NMeA]PAPC-NH2; thioether N-13) | 50
CC(C)[C@@H]1NC(=O)[C@H](Cc2ccccc2)NC(=O)CSC[C@@H](C(=O)NCC(N)=O)NC(=O)[C@@H]2CCCN2C(=O)[C@H](CO)NC(=O)[C@H](CC(N)=O)NC(=O)[C@H](CCC(=O)O)N(C)C(=O)[C@H](Cc2ccc(-c3ccccc3)cc2)NC(=O)[C@H](Cc2ccccc2)N(C)C(=O)[C@H](CO)NC(=O)[C@H]([C@@H](C)O)NC(=O)[C@H]([C@@H](C)O)NC(=O)[C@H](CC(=O)O)NC1=O [Example 1-1] ({CH2CO}-FVDTTS[NMeF][Bip][NMeE]NSPCG-NH2; thioether N-13) | 65
CC(C)[C@@H]1NC(=O)[C@H](Cc2ccccc2)NC(=O)CSC[C@@H](C(=O)NCC(N)=O)NC(=O)[C@@H]2CCCN2C(=O)[C@H](C)NC(=O)[C@H](CCC(N)=O)NC(=O)[C@H](C)N(C)C(=O)[C@H](Cc2ccc(-c3ccccc3)cc2)NC(=O)[C@H](Cc2ccccc2)N(C)C(=O)[C@H](C)NC(=O)[C@H]([C@@H](C)O)NC(=O)[C@H]([C@@H](C)O)NC(=O)[C@H](CC(N)=O)NC1=O [Example 1-18, Ac*-F-V-N-T-T-A-(N-Me)F-B-(N-Me)A-Q-A-P-C*-G-NH2] ({CH2CO}-FVNTTA[NMeF][Bip][NMeA]QAPCG-NH2; thioether N-13) | 53
CC(C)[C@@H]1NC(=O)[C@H](Cc2ccccc2)NC(=O)CSC[C@@H](C(=O)NCC(N)=O)NC(=O)[C@@H]2CCCN2C(=O)[C@H](C)NC(=O)[C@H](CCC(=O)O)NC(=O)[C@H](C)N(C)C(=O)[C@H](Cc2ccc(-c3ccccc3)cc2)NC(=O)[C@H](Cc2ccccc2)N(C)C(=O)[C@H](C)NC(=O)[C@H]([C@@H](C)O)NC(=O)[C@H]([C@@H](C)O)NC(=O)[C@@H]2CCCN2C1=O [Example 1-21, Ac*-F-V-P-T-T-A-(N-Me)F-B-(N-Me)A-E-A-P-C*-G-NH2] ({CH2CO}-FVPTTA[NMeF][Bip][NMeA]EAPCG-NH2; thioether N-13) | 81
CC(C)[C@@H]1NC(=O)[C@H](Cc2ccccc2)NC(=O)CSC[C@@H](C(=O)NCC(N)=O)NC(=O)[C@@H]2CCCN2C(=O)[C@H](CCCNC(=N)N)NC(=O)[C@H](CC(=O)O)NC(=O)[C@H](C)N(C)C(=O)[C@H](Cc2ccc(Cl)c(Cl)c2)NC(=O)[C@H](C)N(C)C(=O)[C@H](Cc2ccc(-c3ccccc3)cc2)NC(=O)[C@H]([C@@H](C)O)NC(=O)[C@H]([C@@H](C)O)NC(=O)[C@H](CO)NC1=O [Example 1-14, Ac*-F-V-S-T-T-B-(N-Me)A-(3,4-diCl)F-(N-Me)A-D-R-P-C*-G-NH2] ({CH2CO}-FVSTT[Bip][NMeA][Phe(3,4-Cl2)][NMeA]DRPCG-NH2; thioether N-13) | 49
CC(C)[C@@H]1NC(=O)[C@H](Cc2ccccc2)NC(=O)CSC[C@@H](C(=O)NCC(N)=O)NC(=O)[C@@H]2CCCN2C(=O)[C@H](CO)NC(=O)[C@H](CCC(=O)O)NC(=O)[C@H](C)N(C)C(=O)[C@H](Cc2ccc(C(F)(F)F)cc2)NC(=O)[C@H](Cc2ccccc2)N(C)C(=O)[C@H](CO)NC(=O)[C@H]([C@@H](C)O)NC(=O)[C@H]([C@@H](C)O)NC(=O)[C@H](CC(=O)O)NC1=O [Example 1-6, Ac*-F-V-D-T-T-S-(N-Me)F-(p-CF3)F-(N-Me)A-E-S-P-C*-G-NH2] ({CH2CO}-FVDTTS[NMeF][Phe(4-CF3)][NMeA]ESPCG-NH2; thioether N-13) | 97
CC(C)[C@@H]1NC(=O)[C@H](Cc2ccccc2)NC(=O)CSC[C@@H](C(=O)NCC(N)=O)NC(=O)[C@@H]2CCCN2C(=O)[C@H](CO)NC(=O)[C@@H]2CCCN2C(=O)[C@H](C)N(C)C(=O)[C@H](Cc2ccc(-c3ccccc3)cc2)NC(=O)[C@H](C)N(C)C(=O)[C@H](Cc2ccc(-c3ccccc3)cc2)NC(=O)[C@H]([C@@H](C)O)NC(=O)[C@H]([C@@H](C)O)NC(=O)[C@H](CO)NC1=O [Example 1-20, Ac*-F-V-S-T-T-B-(N-Me)A-B-(N-Me)A-P-S-P-C*-G-NH2] ({CH2CO}-FVSTT[Bip][NMeA][Bip][NMeA]PSPCG-NH2; thioether N-13) | 35

Same assay, conditions: TR-FRET; Human PCSK9 Alexa Fluor 647 and Human LDLR extracellular domain-Europium Kryptate

Compound | IC50 [nM]
CC(C)[C@@H]1NC(=O)[C@H](Cc2ccccc2)NC(=O)CSC[C@@H](C(=O)NCC(N)=O)NC(=O)[C@@H]2CCCN2C(=O)[C@H](C)NC(=O)[C@H](CCCCN)NC(=O)[C@H](C)N(C)C(=O)[C@H](Cc2ccc(-c3ccccc3)cc2)NC(=O)[C@H](C)N(C)C(=O)[C@H](Cc2ccccc2)NC(=O)[C@H]([C@@H](C)O)NC(=O)[C@H]([C@@H](C)O)NC(=O)[C@H](C)NC1=O [Example 1-22, Ac*-F-V-A-T-T-F-(N-Me)A-B-(N-Me)A-K-A-P-C*-G-NH2] ({CH2CO}-FVATTF[NMeA][Bip][NMeA]KAPCG-NH2; thioether N-13) | 12
CC(C)[C@@H]1NC(=O)[C@H](Cc2ccccc2)NC(=O)CSC[C@@H](C(=O)NCC(N)=O)NC(=O)[C@@H]2CCCN2C(=O)[C@H](CO)NC(=O)[C@H](CCC(=O)O)NC(=O)[C@H](C)N(C)C(=O)[C@H](Cc2ccc(C(F)(F)F)cc2)NC(=O)[C@H](Cc2ccccc2)N(C)C(=O)[C@H](CO)NC(=O)[C@H]([C@@H](C)O)NC(=O)[C@H]([C@@H](C)O)NC(=O)[C@H](CC(=O)O)NC1=O [Example 1-6, Ac*-F-V-D-T-T-S-(N-Me)F-(p-CF3)F-(N-Me)A-E-S-P-C*-G-NH2] ({CH2CO}-FVDTTS[NMeF][Phe(4-CF3)][NMeA]ESPCG-NH2; thioether N-13) | 12
